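Cells were grown in 96-well plates and exposed to each compound for 48 hours at five concentrations; endpoints were interpolated linearly between bracketing concentrations, or set to the highest concentration if not reached. TGI is the concentration that stops growth completely.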
Columns and labels:
Experiment in all cases: inhibition of tumour cell growth, NCI panel, 48 h
786-0 renal = tested on: 786-0 renal
A498 renal = tested on: A498 renal
A549 NSCLC = tested on: A549 NSCLC
ACHN renal = tested on: ACHN renal
BT-549 breast = tested on: BT-549 breast
CAKI-1 renal = tested on: CAKI-1 renal
CCRF-CEM leukemia = tested on: CCRF-CEM leukemia
COLO 205 colon = tested on: COLO 205 colon
DU-145 prostate = tested on: DU-145 prostate
EKVX NSCLC = tested on: EKVX NSCLC
HCC-2998 colon = tested on: HCC-2998 colon
HCT-116 colon = tested on: HCT-116 colon
HCT-15 colon = tested on: HCT-15 colon
HL-60(TB) leukemia = tested on: HL-60(TB) leukemia
HOP-62 NSCLC = tested on: HOP-62 NSCLC
HOP-92 NSCLC = tested on: HOP-92 NSCLC
HS 578T breast = tested on: HS 578T breast
HT29 colon = tested on: HT29 colon
IGROV1 ovarian = tested on: IGROV1 ovarian
K-562 leukemia = tested on: K-562 leukemia
KM12 colon = tested on: KM12 colon
LOX IMVI melanoma = tested on: LOX IMVI melanoma
M14 melanoma = tested on: M14 melanoma
MALME-3M melanoma = tested on: MALME-3M melanoma
MCF7 breast = tested on: MCF7 breast
MDA-MB-231 breast = tested on: MDA-MB-231 breast
MDA-MB-435 = tested on: MDA-MB-435
MOLT-4 leukemia = tested on: MOLT-4 leukemia
NCI-H226 lung = tested on: NCI-H226 lung
NCI-H23 lung = tested on: NCI-H23 lung
NCI-H460 lung = tested on: NCI-H460 lung
NCI-H522 lung = tested on: NCI-H522 lung
NCI/ADR-RES ovarian = tested on: NCI/ADR-RES ovarian
OVCAR-3 ovarian = tested on: OVCAR-3 ovarian
OVCAR-4 ovarian = tested on: OVCAR-4 ovarian
OVCAR-5 ovarian = tested on: OVCAR-5 ovarian
OVCAR-8 ovarian = tested on: OVCAR-8 ovarian
PC-3 prostate = tested on: PC-3 prostate
RPMI-8226 leukemia = tested on: RPMI-8226 leukemia
RXF 393 renal = tested on: RXF 393 renal
SF-268 CNS = tested on: SF-268 CNS
SF-295 CNS = tested on: SF-295 CNS
SF-539 CNS = tested on: SF-539 CNS
SK-MEL-2 melanoma = tested on: SK-MEL-2 melanoma
SK-MEL-28 melanoma = tested on: SK-MEL-28 melanoma
SK-MEL-5 melanoma = tested on: SK-MEL-5 melanoma
SK-OV-3 ovarian = tested on: SK-OV-3 ovarian
SN12C renal = tested on: SN12C renal
SNB-19 CNS = tested on: SNB-19 CNS
SNB-75 CNS = tested on: SNB-75 CNS
SR leukemia = tested on: SR leukemia
SW-620 colon = tested on: SW-620 colon
T-47D breast = tested on: T-47D breast
TK-10 renal = tested on: TK-10 renal
U251 CNS = tested on: U251 CNS
UACC-257 melanoma = tested on: UACC-257 melanoma
UACC-62 melanoma = tested on: UACC-62 melanoma
UO-31 renal = tested on: UO-31 renal

Compound: O=C(/C=C/c1ccc2ccccc2c1)NCc1ccc(C(=O)NCc2ccccc2)cc1
- TGI (786-0 renal): > 100 µM
- TGI (A498 renal): > 100 µM
- TGI (A549 NSCLC): > 100 µM
- TGI (ACHN renal): > 100 µM
- TGI (BT-549 breast): > 100 µM
- TGI (CAKI-1 renal): > 73.1 µM
- TGI (CCRF-CEM leukemia): > 100 µM
- TGI (COLO 205 colon): > 100 µM
- TGI (DU-145 prostate): > 100 µM
- TGI (EKVX NSCLC): > 100 µM
- TGI (HCC-2998 colon): > 100 µM
- TGI (HCT-116 colon): > 100 µM
- TGI (HCT-15 colon): > 100 µM
- TGI (HL-60(TB) leukemia): 38.8 µM
- TGI (HOP-62 NSCLC): 52.9 µM
- TGI (HOP-92 NSCLC): > 100 µM
- TGI (HS 578T breast): > 100 µM
- TGI (HT29 colon): > 100 µM
- TGI (IGROV1 ovarian): > 100 µM
- TGI (K-562 leukemia): > 31.6 µM
- TGI (KM12 colon): > 100 µM
- TGI (LOX IMVI melanoma): > 100 µM
- TGI (M14 melanoma): > 100 µM
- TGI (MALME-3M melanoma): > 100 µM
- TGI (MCF7 breast): > 100 µM
- TGI (MDA-MB-231 breast): > 100 µM
- TGI (MDA-MB-435): > 100 µM
- TGI (MOLT-4 leukemia): > 100 µM
- TGI (NCI-H226 lung): 86.8 µM
- TGI (NCI-H23 lung): > 100 µM
- TGI (NCI-H460 lung): > 100 µM
- TGI (NCI-H522 lung): > 100 µM
- TGI (NCI/ADR-RES ovarian): > 100 µM
- TGI (OVCAR-3 ovarian): > 100 µM
- TGI (OVCAR-4 ovarian): > 100 µM
- TGI (OVCAR-5 ovarian): > 100 µM
- TGI (OVCAR-8 ovarian): > 100 µM
- TGI (PC-3 prostate): > 100 µM
- TGI (RPMI-8226 leukemia): > 100 µM
- TGI (RXF 393 renal): > 100 µM
- TGI (SF-268 CNS): > 100 µM
- TGI (SF-295 CNS): > 100 µM
- TGI (SF-539 CNS): > 100 µM
- TGI (SK-MEL-2 melanoma): > 100 µM
- TGI (SK-MEL-28 melanoma): > 100 µM
- TGI (SK-MEL-5 melanoma): > 100 µM
- TGI (SK-OV-3 ovarian): > 100 µM
- TGI (SN12C renal): > 100 µM
- TGI (SNB-19 CNS): > 100 µM
- TGI (SNB-75 CNS): 71.1 µM
- TGI (SR leukemia): > 100 µM
- TGI (SW-620 colon): > 100 µM
- TGI (T-47D breast): > 89.6 µM
- TGI (TK-10 renal): > 100 µM
- TGI (U251 CNS): > 100 µM
- TGI (UACC-257 melanoma): > 100 µM
- TGI (UACC-62 melanoma): > 100 µM
- TGI (UO-31 renal): > 100 µM

Source: PubChem BioAssay (NCI)
